Test [1] has as its target NAMPT (human, recombinant, C-terminally His-tagged) (Homo sapiens, UniProt P43490). Briefly: Time-Resolved Fluorescence Resonance Energy Transfer (TR-FRET) Binding Assay of NAMPT. Conditions: 6.8 nM NAMPT, 200 nM probe, equilibrated 3 hours, absence of substrates. The method, boiled down: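 Recombinant C-terminally His-tagged human NAMPT (6.8 nM) incubated 3 h at room temperature with 200 nM Oregon Green 488–labelled nicotinamide-competitive probe and 1 nM Tb-anti-His antibody in HEPES pH 7.5, 2% DMSO. TR-FRET ratio Em520/Em495 normalized to controls; IC50 from four-parameter logistic fit.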
A general note: TR-FRET usually uses a lanthanide donor and a delayed reading to cut background.

The target of a further test is NAMPT (Homo sapiens, UniProt P43490). Description: Time-Resolved Fluorescence Resonance Energy Transfer (TR-FRET) Binding Assay of NAMPT with PRPP. Conditions: 2 nM NAMPT, 2 nM probe, 200 uM PRPP and 2.5 mM ATP, equilibrated 16 hours. The method, boiled down: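 Final mix: 2 nM NAMPT, 2 nM probe, 1 nM Tb-anti-His antibody, 200 uM PRPP, 2.5 mM ATP, 2% DMSO in 1× assay buffer. Equilibrated 16 hours before TR-FRET read, allowing possible enzymatic modification of compounds.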

The source of these data is patent publication US8975398B2, “NAMPT inhibitors” (AbbVie Inc., priority 2012, dated 2015).

Molecules are shown by their SMILES.

NAMPT (human, recombinant, C-terminally His-tagged), sequence (P43490 whole entry): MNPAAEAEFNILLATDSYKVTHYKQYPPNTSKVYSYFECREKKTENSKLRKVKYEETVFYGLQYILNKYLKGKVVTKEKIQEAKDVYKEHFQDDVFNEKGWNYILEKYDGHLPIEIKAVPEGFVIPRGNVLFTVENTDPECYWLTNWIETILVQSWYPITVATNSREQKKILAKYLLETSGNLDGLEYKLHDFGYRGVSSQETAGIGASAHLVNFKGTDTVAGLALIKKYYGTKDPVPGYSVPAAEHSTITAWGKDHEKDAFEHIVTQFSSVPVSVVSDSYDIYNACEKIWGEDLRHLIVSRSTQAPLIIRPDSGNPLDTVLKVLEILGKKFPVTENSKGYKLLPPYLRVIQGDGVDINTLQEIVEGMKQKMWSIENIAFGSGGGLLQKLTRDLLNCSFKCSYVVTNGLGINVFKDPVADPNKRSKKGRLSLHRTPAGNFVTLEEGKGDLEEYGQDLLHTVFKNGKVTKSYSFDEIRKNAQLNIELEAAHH
NAMPT, sequence (P43490 whole entry): as above

As to `O=C(Nc1ccc(OC2CCN(C(=O)c3nccs3)CC2)cc1)C1CN(c2cccnn2)C1` [Example 213, 1-(pyridazin-3-yl)-N-(4-{[1-(1,3-thiazol-2-ylcarbonyl)piperidin-4-yl]oxy}phenyl)azetidine-3-carboxamide], the results for the IC50 (in test [1]; at NAMPT) were 104 nM and 0.678 nM, respectively.

As to `O=C(Nc1ccc(OC2CCN(C(=O)C3CCOCC3)CC2)cc1)C1CN(c2cccnn2)C1` [Example 214, 1-(pyridazin-3-yl)-N-(4-{[1-(tetrahydro-2H-pyran-4-ylcarbonyl)piperidin-4-yl]oxy}phenyl)azetidine-3-carboxamide], the 50% inhibitory concentration (IC50) (commonly the concentration that gives 50% inhibition) came out at 165 nM in test [1] and 0.841 nM on NAMPT.

Consider `O=C(Nc1ccc(OC2CCN(C(=O)C(F)(F)c3ccccc3)CC2)cc1)C1CN(c2cccnn2)C1` [Example 215, N-[4-({1-[difluoro(phenyl)acetyl]piperidin-4-yl}oxy)phenyl]-1-(pyridazin-3-yl)azetidine-3-carboxamide], for which the IC50 in test [1] was determined as 68.2 nM; on NAMPT it was 1.14 nM.

Take `O=C(Nc1ccc(OC2CCN(C(=O)C3CCC(F)(F)CC3)CC2)cc1)C1CN(c2cccnn2)C1` [Example 216, N-[4-({1-[(4,4-difluorocyclohexyl)carbonyl]piperidin-4-yl}oxy)phenyl]-1-(pyridazin-3-yl)azetidine-3-carboxamide]: the IC50 was determined as 228 nM in test [1] and 1.41 nM on NAMPT.

For `CC(C)(C(=O)N1CCC(Oc2ccc(NC(=O)C3CN(c4cccnn4)C3)cc2)CC1)c1ccccc1` [Example 217, N-(4-{[1-(2-methyl-2-phenylpropanoyl)piperidin-4-yl]oxy}phenyl)-1-(pyridazin-3-yl)azetidine-3-carboxamide], the IC50 in test [1] worked out at 43.9 nM; at NAMPT it was 1.51 nM.

For `O=C(Nc1ccc(OC2CCN(C(=O)c3cscn3)CC2)cc1)C1CN(c2cccnn2)C1` [Example 218, 1-(pyridazin-3-yl)-N-(4-{[1-(1,3-thiazol-4-ylcarbonyl)piperidin-4-yl]oxy}phenyl)azetidine-3-carboxamide], the IC50 is 265 nM in test [1] and 1.64 nM at NAMPT.

Regarding `Cc1ccc(C(=O)N2CCC(Oc3ccc(NC(=O)C4CN(c5cccnn5)C4)cc3)CC2)s1` [Example 219, N-[4-({1-[(5-methylthiophen-2-yl)carbonyl]piperidin-4-yl}oxy)phenyl]-1-(pyridazin-3-yl)azetidine-3-carboxamide], the IC50 was found to be 105 nM in test [1] and 0.48 nM at NAMPT.

Turning to `O=C(Nc1ccc(OC2CCN(C(=O)Cc3ccc(C(F)(F)F)cc3)CC2)cc1)C1CN(c2cccnn2)C1` [Example 220, 1-(pyridazin-3-yl)-N-{4-[(1-{[4-(trifluoromethyl)phenyl]acetyl}piperidin-4-yl)oxy]phenyl}azetidine-3-carboxamide], the IC50 in test [1] came to 267 nM; at NAMPT it was 1.01 nM.

`O=C(Nc1ccc(OC2CCN(C(=O)C3CCCO3)CC2)cc1)C1CN(c2cccnn2)C1` (stereo not drawn) [Example 221, 1-(pyridazin-3-yl)-N-(4-{[1-(tetrahydrofuran-2-ylcarbonyl)piperidin-4-yl]oxy}phenyl)azetidine-3-carboxamide]: the IC50 in test [1] was found to be 164 nM; at NAMPT, 0.576 nM.

Turning to `O=C(Nc1ccc(OC2CCN(C(=O)c3cccc(C(F)(F)F)c3)CC2)cc1)C1CN(c2cccnn2)C1` [Example 222, 1-(pyridazin-3-yl)-N-[4-({1-[3-(trifluoromethyl)benzoyl]piperidin-4-yl}oxy)phenyl]azetidine-3-carboxamide], the IC50 stood at 215 nM in test [1] and 1.03 nM at NAMPT.

In the case of `O=C(Nc1ccc(OC2CCN(C(=O)c3ccsc3)CC2)cc1)C1CN(c2cccnn2)C1` [Example 223, 1-(pyridazin-3-yl)-N-(4-{[1-(thiophen-3-ylcarbonyl)piperidin-4-yl]oxy}phenyl)azetidine-3-carboxamide], the figures for the IC50 (in test [1]; on NAMPT) were 150 nM and 0.959 nM, respectively.

As to `O=C(Nc1ccc(OC2CCN(C(=O)c3cccc(OC(F)(F)F)c3)CC2)cc1)C1CN(c2cccnn2)C1` [Example 224, 1-(pyridazin-3-yl)-N-[4-({1-[3-(trifluoromethoxy)benzoyl]piperidin-4-yl}oxy)phenyl]azetidine-3-carboxamide], the values for the IC50 (in test [1]; at NAMPT) were 151 nM and 1.39 nM, respectively.

Regarding `CC(C)CC(=O)N1CCC(Oc2ccc(NC(=O)C3CN(c4cccnn4)C3)cc2)CC1` [Example 225, N-(4-{[1-(3-methylbutanoyl)piperidin-4-yl]oxy}phenyl)-1-(pyridazin-3-yl)azetidine-3-carboxamide], the figures for the 50% inhibitory concentration (IC50) (in test [1]; on NAMPT) were 158 nM and 1.07 nM, respectively.

`O=C(Nc1ccc(OC2CCN(C(=O)C3CCOC3)CC2)cc1)C1CN(c2cccnn2)C1` (stereo not drawn) [Example 226, 1-(pyridazin-3-yl)-N-(4-{[1-(tetrahydrofuran-3-ylcarbonyl)piperidin-4-yl]oxy}phenyl)azetidine-3-carboxamide]: the half-maximal inhibitory concentration (IC50) in test [1] was determined as 242 nM; on NAMPT, 0.896 nM.

As to `O=C(Nc1ccc(OC2CCN(C(=O)Cc3cccc(F)c3)CC2)cc1)C1CN(c2cccnn2)C1` [Example 227, N-[4-({1-[(3-fluorophenyl)acetyl]piperidin-4-yl}oxy)phenyl]-1-(pyridazin-3-yl)azetidine-3-carboxamide], the IC50 in test [1] stood at 65.9 nM; at NAMPT, 0.696 nM.

For `O=C(Nc1ccc(OC2CCN(C(=O)c3ccccc3F)CC2)cc1)C1CN(c2cccnn2)C1` [Example 228, N-(4-{[1-(2-fluorobenzoyl)piperidin-4-yl]oxy}phenyl)-1-(pyridazin-3-yl)azetidine-3-carboxamide], the half-inhibitory concentration (IC50) is 54.6 nM in test [1] and 0.911 nM at NAMPT.

Consider `O=C(Nc1ccc(OC2CCN(C(=O)c3ccc(F)cc3F)CC2)cc1)C1CN(c2cccnn2)C1` [Example 229, N-(4-{[1-(2,4-difluorobenzoyl)piperidin-4-yl]oxy}phenyl)-1-(pyridazin-3-yl)azetidine-3-carboxamide], for which the IC50 in test [1] was determined as 48 nM; at NAMPT, 0.584 nM.

With `O=C(Nc1ccc(OC2CCN(C(=O)c3ccc(F)cc3)CC2)cc1)C1CN(c2cccnn2)C1` [Example 230, N-(4-{[1-(4-fluorobenzoyl)piperidin-4-yl]oxy}phenyl)-1-(pyridazin-3-yl)azetidine-3-carboxamide], the half-maximal inhibitory concentration (IC50) in test [1] was 158 nM; on NAMPT it was 0.843 nM.

With `O=C(Nc1ccc(OC2CCN(C(=O)c3cccc(F)c3)CC2)cc1)C1CN(c2cccnn2)C1` [Example 231, N-(4-{[1-(3-fluorobenzoyl)piperidin-4-yl]oxy}phenyl)-1-(pyridazin-3-yl)azetidine-3-carboxamide], the IC50 came to 174 nM in test [1] and 0.831 nM at NAMPT.

As to `O=C(Nc1ccc(OC2CCN(C(=O)Cc3ccc(F)cc3)CC2)cc1)C1CN(c2cccnn2)C1` [Example 232, N-[4-({1-[(4-fluorophenyl)acetyl]piperidin-4-yl}oxy)phenyl]-1-(pyridazin-3-yl)azetidine-3-carboxamide], the figures for the IC50 (in test [1]; on NAMPT) were 141 nM and 0.563 nM, respectively.

For `O=C(Nc1ccc(OC2CCN(C(=O)CC3CC3)CC2)cc1)C1CN(c2cccnn2)C1` [Example 233, N-(4-{[1-(cyclopropylacetyl)piperidin-4-yl]oxy}phenyl)-1-(pyridazin-3-yl)azetidine-3-carboxamide], the values for the concentration for half-maximal inhibition (IC50) (in test [1]; on NAMPT) were 113 nM and 0.614 nM, respectively.

`O=C(Nc1ccc(OC2CCN(C(=O)c3ccc(F)c(F)c3)CC2)cc1)C1CN(c2cccnn2)C1` [Example 234, N-(4-{[1-(3,4-difluorobenzoyl)piperidin-4-yl]oxy}phenyl)-1-(pyridazin-3-yl)azetidine-3-carboxamide]: the values for the IC50 (in test [1]; on NAMPT) were 185 nM and 0.73 nM, respectively.

As to `O=C(Nc1ccc(OC2CCN(C(=O)c3ccc(OC(F)(F)F)cc3)CC2)cc1)C1CN(c2cccnn2)C1` [Example 235, 1-(pyridazin-3-yl)-N-[4-({1-[4-(trifluoromethoxy)benzoyl]piperidin-4-yl}oxy)phenyl]azetidine-3-carboxamide], the 50% inhibitory concentration (IC50) in test [1] turned out to be 283 nM; on NAMPT it was 1.41 nM.

In the case of `O=C(Nc1ccc(OC2CCN(C(=O)Cc3ccc(F)cc3F)CC2)cc1)C1CN(c2cccnn2)C1` [Example 236, N-[4-({1-[(2,4-difluorophenyl)acetyl]piperidin-4-yl}oxy)phenyl]-1-(pyridazin-3-yl)azetidine-3-carboxamide], the IC50 in test [1] was found to be 130 nM; on NAMPT, 1.11 nM.

Take `O=C(Nc1ccc(OC2CCN(C(=O)c3ccc(C(F)(F)F)cc3)CC2)cc1)C1CN(c2cccnn2)C1` [Example 237, 1-(pyridazin-3-yl)-N-[4-({1-[4-(trifluoromethyl)benzoyl]piperidin-4-yl}oxy)phenyl]azetidine-3-carboxamide]: the figures for the IC50 (in test [1]; on NAMPT) were 240 nM and 1.27 nM, respectively.

As to `O=C(Nc1ccc(OC2CCN(C(=O)Cc3ccc(OC(F)(F)F)cc3)CC2)cc1)C1CN(c2cccnn2)C1` [Example 238, 1-(pyridazin-3-yl)-N-{4-[(1-{[4-(trifluoromethoxy)phenyl]acetyl}piperidin-4-yl)oxy]phenyl}azetidine-3-carboxamide], the concentration for half-maximal inhibition (IC50) in test [1] came out at 207 nM; on NAMPT, 0.554 nM.

On to `O=C(Nc1ccc(OC2CCN(C(=O)Cc3cc(F)cc(F)c3)CC2)cc1)C1CN(c2cccnn2)C1` [Example 239, N-[4-({1-[(3,5-difluorophenyl)acetyl]piperidin-4-yl}oxy)phenyl]-1-(pyridazin-3-yl)azetidine-3-carboxamide], for which the IC50 was 112 nM in test [1] and 0.833 nM on NAMPT.
